≈ marks a conversion by molar mass, not a printed value.
Experiment: Cytotoxicity against Homo sapiens (human) U87 cells by MTT assay
Format: functional, cell-based, U-87MG ATCC
Conditions: U-87 MG

Row | SMILES | IC50 [µg/mL]
1 | O=C1C(=O)N(CCCCCCBr)c2ccccc21 | 19 (≈ 61.3 µM)
2 | CC1(C)CC(=O)C2=C(C1)OC(N)=C(C#N)C21C(=O)N(CCBr)c2ccccc21 (configuration not stated) | 78 (≈ 176 µM)
3 | O=NN(CCCl)C(=O)NCCCl [CARMUSTINE] | 3.9 (≈ 18.2 µM)
4 | N#CC1=C(N)Oc2c(c(=O)oc3ccccc23)C12C(=O)N(CCCCBr)c1ccccc12 (configuration not stated) | 78 (≈ 158 µM)
5 | N#CC1=C(N)Oc2[nH]c(=S)[nH]c(=O)c2C12C(=O)N(CCBr)c1ccccc12 (configuration not stated) | 78 (≈ 175 µM)
6 | N#CC1=C(N)Oc2c(c(=O)oc3ccccc23)C12C(=O)N(CCCBr)c1ccccc12 (configuration not stated) | 156 (≈ 326 µM)
7 | CC1(C)CC(=O)C2=C(C1)OC(N)=C(C#N)C21C(=O)N(CCCBr)c2ccccc21 (configuration not stated) | 312 (≈ 684 µM)
8 | N#CC1=C(N)Oc2[nH]c(=O)[nH]c(=O)c2C12C(=O)N(CCBr)c1ccccc12 (configuration not stated) | 78 (≈ 181 µM)
9 | Cc1nn(-c2ccccc2)c2c1C1(C(=O)N(CCBr)c3ccccc31)C(C#N)=C(N)O2 (configuration not stated) | 78 (≈ 164 µM)
10 | Cc1nn(-c2ccccc2)c2c1C1(C(=O)N(CCCCBr)c3ccccc31)C(C#N)=C(N)O2 (configuration not stated) | 39 (≈ 77.3 µM)
11 | CC1(C)CC(=O)C2=C(C1)OC(N)=C(C#N)C21C(=O)N(CCCCBr)c2ccccc21 (configuration not stated) | 156 (≈ 332 µM)
12 | N#CC1=C(N)OC2=C(C(=O)CCC2)C12C(=O)Nc1ccc(Br)cc12 (configuration not stated) | 312 (≈ 808 µM)
13 | N#CC1=C(N)Oc2[nH]c(=S)[nH]c(=O)c2C12C(=O)Nc1ccc(Br)cc12 (configuration not stated) | 156 (≈ 373 µM)
14 | Cc1nn(-c2ccccc2)c2c1C1(C(=O)N(CCCCCCCCCCBr)c3ccccc31)C(C#N)=C(N)O2 (configuration not stated) | 19 (≈ 32.3 µM)
15 | N#CC1=C(N)Oc2c(c(=O)oc3ccccc23)C12C(=O)N(CCCCCCCCCCBr)c1ccccc12 (configuration not stated) | 39 (≈ 67.7 µM)
16 | N#CC1=C(N)Oc2[nH]c(=O)[nH]c(=O)c2C12C(=O)N(CCCCBr)c1ccccc12 (configuration not stated) | 312 (≈ 681 µM)
17 | Cc1nn(-c2ccccc2)c2c1C1(C(=O)Nc3ccccc31)C(C#N)=C(N)O2 (configuration not stated) | 156 (≈ 422 µM)
18 | Cc1nn(-c2ccccc2)c2c1C1(C(=O)N(CCCCCCBr)c3ccccc31)C(C#N)=C(N)O2 (configuration not stated) | 78 (≈ 146 µM)
19 | N#CC1=C(N)OC2=C(C(=O)CCC2)C12C(=O)N(CCBr)c1ccccc12 (configuration not stated) | 78 (≈ 188 µM)
20 | Cc1nn(-c2ccccc2)c2c1C1(C(=O)Nc3ccc(Br)cc31)C(C#N)=C(N)O2 (configuration not stated) | 156 (≈ 348 µM)
21 | N#CC1=C(N)Oc2c(c(=O)oc3ccccc23)C12C(=O)N(CCBr)c1ccccc12 (configuration not stated) | 78 (≈ 168 µM)

Row | SMILES | IC50 [µg/mL]
22 | N#CC1=C(N)OC2=C(C(=O)CCC2)C12C(=O)N(CCCBr)c1ccccc12 (configuration not stated) | 624 (≈ 1460 µM)
23 | N#CC1=C(N)Oc2[nH]c(=S)[nH]c(=O)c2C12C(=O)N(CCCCBr)c1ccccc12 (configuration not stated) | 78 (≈ 164 µM)
24 | O=C1C(=O)N(CCCCBr)c2ccccc21 | 19 (≈ 67.3 µM)
25 | N#CC1=C(N)Oc2c(c(=O)oc3ccccc23)C12C(=O)N(CCCCCCBr)c1ccccc12 (configuration not stated) | 156 (≈ 300 µM)
26 | O=C1C(=O)N(CCBr)c2ccccc21 | 4.9 (≈ 19.3 µM)
27 | N#CC1=C(N)Oc2c(c(=O)oc3ccccc23)C12C(=O)Nc1ccc(Br)cc12 (configuration not stated) | 78 (≈ 179 µM)
28 | N#CC1=C(N)Oc2[nH]c(=O)[nH]c(=S)c2C12C(=O)N(CCCBr)c1ccccc12 (configuration not stated) | 624 (≈ 1360 µM)
29 | N#CC1=C(N)Oc2[nH]c(=O)[nH]c(=O)c2C12C(=O)N(CCCCCCCCCCBr)c1ccccc12 (configuration not stated) | 39 (≈ 71.9 µM)
30 | O=C1C(=O)N(CCCCCCCCCCBr)c2ccccc21 | 19 (≈ 51.9 µM)
31 | N#CC1=C(N)Oc2[nH]c(=S)[nH]c(=O)c2C12C(=O)N(CCCCCCBr)c1ccccc12 (configuration not stated) | 78 (≈ 155 µM)
32 | N#CC1=C(N)Oc2c(c(=O)oc3ccccc23)C12C(=O)Nc1ccccc12 (configuration not stated) | 78 (≈ 218 µM)
33 | N#CC1=C(N)OC2=C(C(=O)CCC2)C12C(=O)Nc1ccccc12 (configuration not stated) | 156 (≈ 508 µM)
34 | N#CC1=C(N)Oc2[nH]c(=O)[nH]c(=O)c2C12C(=O)N(CCCCCCBr)c1ccccc12 (configuration not stated) | 78 (≈ 160 µM)
35 | CC1(C)CC(=O)C2=C(C1)OC(N)=C(C#N)C21C(=O)N(CCCCCCCCCCBr)c2ccccc21 (configuration not stated) | 2.5 (≈ 4.51 µM)
36 | CC1(C)CC(=O)C2=C(C1)OC(N)=C(C#N)C21C(=O)N(CCCCCCBr)c2ccccc21 (configuration not stated) | 78 (≈ 156 µM)
37 | N#CC1=C(N)Oc2[nH]c(=O)[nH]c(=O)c2C12C(=O)Nc1ccc(Br)cc12 (configuration not stated) | 78 (≈ 194 µM)
38 | Cc1nn(-c2ccccc2)c2c1C1(C(=O)N(CCCBr)c3ccccc31)C(C#N)=C(N)O2 (configuration not stated) | 78 (≈ 159 µM)
39 | N#CC1=C(N)Oc2[nH]c(=O)[nH]c(=O)c2C12C(=O)Nc1ccccc12 (configuration not stated) | 312 (≈ 965 µM)
40 | O=C1C(=O)N(CCCBr)c2ccccc21 | 2.5 (≈ 9.32 µM)
41 | N#CC1=C(N)Oc2[nH]c(=O)[nH]c(=O)c2C12C(=O)N(CCCBr)c1ccccc12 (configuration not stated) | 312 (≈ 702 µM)
42 | N#CC1=C(N)Oc2[nH]c(=O)[nH]c(=S)c2C12C(=O)N(CCCCCCCCCCBr)c1ccccc12 (configuration not stated) | 39 (≈ 69.8 µM)
